From ChEMBL document CHEMBL1909046, “DrugMatrix in vitro pharmacology data”

Legend:
Cytochrome P450 2A6 = biological target: T1, Cytochrome P450 2A6 (Homo sapiens, UniProt P11509); settings: bti-tn-5b1-4; note: in other assays of this panel Not Active means under 50% inhibition at 10 µM
T1 sequence (P11509 whole entry): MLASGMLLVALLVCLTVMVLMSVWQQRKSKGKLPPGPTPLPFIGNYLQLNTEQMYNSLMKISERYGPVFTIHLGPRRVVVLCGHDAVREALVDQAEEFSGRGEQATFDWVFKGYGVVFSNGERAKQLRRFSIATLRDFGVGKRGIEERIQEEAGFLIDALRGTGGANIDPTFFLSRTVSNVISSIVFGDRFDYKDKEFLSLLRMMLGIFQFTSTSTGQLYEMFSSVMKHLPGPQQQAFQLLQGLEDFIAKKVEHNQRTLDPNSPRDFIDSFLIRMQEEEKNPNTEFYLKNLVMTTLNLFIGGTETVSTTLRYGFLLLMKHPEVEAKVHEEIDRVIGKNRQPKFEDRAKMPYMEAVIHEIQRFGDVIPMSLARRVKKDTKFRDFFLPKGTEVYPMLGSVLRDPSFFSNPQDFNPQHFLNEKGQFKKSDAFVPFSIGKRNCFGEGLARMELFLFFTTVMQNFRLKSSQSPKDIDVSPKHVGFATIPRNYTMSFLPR

[1] = DRUGMATRIX: Tumor Necrosis Factor (TNF), Non-Selective radioligand binding (ligand: [125I] TNF-alpha); assay type: cell membranes, Membrane; settings: u-937; Not Active = under 50% inhibition at 10 µM
[2] = DRUGMATRIX: Calcium Channel Type L, Phenylalkylamine radioligand binding (ligand: [3H] (-)-Desmethoxyverapamil (D-888)); assay type: cell membranes, Rattus norvegicus, Wistar, Brain, Membrane; settings: Not Active = under 50% inhibition at 10 µM
[3] = DRUGMATRIX: Platelet-Derived Growth Factor (PDGF) radioligand binding (ligand: [125I] PDGF); assay type: cell-based; settings: nih3t3; Not Active = under 50% inhibition at 10 µM
[4] = DRUGMATRIX: Sigma2 radioligand binding (ligand: [3H] Ifenprodil); assay type: cell membranes, Rattus norvegicus, Wistar, Brain, Membrane; settings: Not Active = under 50% inhibition at 10 µM
Leukotriene C4 synthase = biological target: T2, Leukotriene C4 synthase (Cavia porcellus, UniProt A6XA80); assay type: tissue-based, Lung;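 note: enzyme inhibition assay of leukotriene C4 synthase, using LTA4 as the substrate; in other assays of this panel Not Active means under 50% inhibition at 10 µM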
T2 sequence (A6XA80 whole entry): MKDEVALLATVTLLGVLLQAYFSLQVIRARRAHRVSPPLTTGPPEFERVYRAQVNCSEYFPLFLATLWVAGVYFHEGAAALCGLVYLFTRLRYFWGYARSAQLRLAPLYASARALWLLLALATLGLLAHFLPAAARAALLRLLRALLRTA

Adenosine receptor A2a = Adenosine receptor A2a (Homo sapiens, UniProt P29274); assay: DRUGMATRIX: Adenosine A2A radioligand binding (ligand: […]); assay type: cell membranes, Membrane; settings: hek293; Not Active = under 50% inhibition at 10 µM
Chain of Adenosine receptor A2a (P29274 whole entry): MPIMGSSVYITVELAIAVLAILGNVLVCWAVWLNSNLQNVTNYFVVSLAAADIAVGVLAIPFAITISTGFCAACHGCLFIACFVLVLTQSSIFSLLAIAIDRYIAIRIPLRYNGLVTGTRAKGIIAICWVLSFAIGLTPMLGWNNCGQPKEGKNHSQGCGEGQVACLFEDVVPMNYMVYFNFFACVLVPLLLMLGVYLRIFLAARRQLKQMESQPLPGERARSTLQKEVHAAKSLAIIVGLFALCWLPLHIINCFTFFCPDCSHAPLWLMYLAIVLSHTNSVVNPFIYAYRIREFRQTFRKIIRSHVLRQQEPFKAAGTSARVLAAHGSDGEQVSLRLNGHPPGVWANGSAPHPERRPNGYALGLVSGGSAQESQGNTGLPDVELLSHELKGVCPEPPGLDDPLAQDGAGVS

Compound | IC50 (Cytochrome P450 2A6) | Ki (Cytochrome P450 2A6) | IC50 [1] | Ki [1] | IC50 [2] | Ki [2] | IC50 [3] | Ki [3] | IC50 [4] | Ki [4] | IC50 (Leukotriene C4 synthase) | IC50 (Adenosine receptor A2a) | IC50 ([2]; read-out: IC50) [nM] | Ki ([2]; read-out: Ki) [nM] | IC50 ([4]; read-out: IC50) [nM] | Ki ([4]; read-out: Ki) [nM]
CC[C@@H](CO)NC(=O)[C@@H]1C=C2c3cccc4[nH]cc(c34)C[C@H]2N(C)C1 [METHYLERGONOVINE] | Not Active | Not Active | Not Active | Not Active | Not Active | Not Active | Not Active | Not Active | Not Active | Not Active | Not Active | Not Active | – | – | – | –
COc1nc(C)nc(Cl)c1NC1=NCCN1 [MOXONIDINE] | Not Active | Not Active | Not Active | Not Active | Not Active | Not Active | Not Active | Not Active | Not Active | Not Active | Not Active | Not Active | – | – | – | –
COc1c(C)c2c(c(O)c1C/C=C(\C)CCC(=O)O)C(=O)OC2 [MYCOPHENOLIC ACID] | Not Active | Not Active | Not Active | Not Active | Not Active | Not Active | Not Active | Not Active | Not Active | Not Active | Not Active | Not Active | – | – | – | –
O=c1ncn2nc(Sc3ccc(F)cc3F)ccc2c1-c1c(Cl)cccc1Cl [NEFLAMAPIMOD] | Not Active | Not Active | Not Active | Not Active | Not Active | Not Active | Not Active | Not Active | Not Active | Not Active | Not Active | Not Active | – | – | – | –
CN1CCN(CCCN2c3ccccc3Sc3ccc(Cl)cc32)CC1 [PROCHLORPERAZINE] | Not Active | Not Active | – | – | – | – | – | – | – | – | Not Active | Not Active | – | – | – | –
CO[C@H]1/C=C/O[C@@]2(C)Oc3c(C)c(O)c4c(O)c(c(/C=N/N5CCN(C)CC5)c(O)c4c3C2=O)NC(=O)/C(C)=C\C=C\[C@H](C)[C@H](O)[C@@H](C)[C@@H](O)[C@@H](C)[C@H](OC(C)=O)[C@@H]1C [RIFAMPIN] | Not Active | Not Active | Not Active | Not Active | Not Active | Not Active | Not Active | Not Active | Not Active | Not Active | Not Active | Not Active | – | – | – | –
Nc1nc2ccc(OC(F)(F)F)cc2s1 [RILUZOLE] | – | – | Not Active | Not Active | Not Active | Not Active | Not Active | Not Active | Not Active | Not Active | Not Active | Not Active | – | – | – | –
Cc1nc2n(c(=O)c1CCN1CCC(c3noc4cc(F)ccc34)CC1)CCCC2 [RISPERIDONE] | Not Active | Not Active | – | – | – | – | – | – | – | – | Not Active | Not Active | – | – | – | –
C=CCC1(C(C)CCC)C(=O)NC(=O)NC1=O (stereo not given) [SECOBARBITAL] | Not Active | Not Active | Not Active | Not Active | Not Active | Not Active | Not Active | Not Active | Not Active | Not Active | Not Active | Not Active | – | – | – | –
C[C@@H]1CN(c2c(F)c(N)c3c(=O)c(C(=O)O)cn(C4CC4)c3c2F)C[C@H](C)N1 [SPARFLOXACIN] | Not Active | Not Active | Not Active | Not Active | Not Active | Not Active | Not Active | Not Active | Not Active | Not Active | Not Active | Not Active | – | – | – | –
Cc1noc(NS(=O)(=O)c2ccc(N)cc2)c1C [SULFISOXAZOLE] | Not Active | Not Active | Not Active | Not Active | Not Active | Not Active | Not Active | Not Active | Not Active | Not Active | Not Active | Not Active | – | – | – | –
CC/C(=C(\c1ccccc1)c1ccc(OCCN(C)C)cc1)c1ccccc1 [TAMOXIFEN] | Not Active | Not Active | – | – | – | – | – | – | – | – | Not Active | – | – | – | – | –
CC(C)N1CCN(c2ccc(OCC3COC(Cn4cncn4)(c4ccc(Cl)cc4Cl)O3)cc2)CC1 (stereo not given) [TERCONAZOLE] | Not Active | Not Active | – | – | – | – | – | – | – | – | Not Active | Not Active | 3460 | 3360 | 317 | 195
